According to ChEMBL document CHEMBL5053508, “Optimization of Beclin 1-Targeting Stapled Peptides by Staple Scanning Leads to Enhanced Antiproliferative Potency in Cancer Cells” (J Med Chem, 2021):
pIC50, pKd: −log10 of the molar value. Calls of active or inactive are those of the source. No cut-off for these calls is given here.

Legend:
SK-BR-3 [1] = experiment: Induction of apoptosis in human SK-BR-3 cells assessed as late apoptotic cells at 1 uM incubated for 24 hrs by flow cytometry with Annexin V-FITC/propidium iodide staining based flow cytometry assay (Rvb= 2.2%); format: functional
SK-BR-3 [2] = experiment: Induction of apoptosis in human SK-BR-3 cells assessed as early apoptotic cells at 1 uM measured after 24 hrs by annexin V-FITC/PI staining based flow cytometry analysis (Rvb= 2.2%); format: functional
SK-BR-3 [3] = experiment: Induction of apoptosis in human SK-BR-3 cells assessed as live cells at 1 uM measured after 24 hrs by annexin V-FITC/PI staining based flow cytometry analysis (Rvb= 90.6%); format: functional
SK-BR-3 [4] = experiment: Induction of apoptosis in human SK-BR-3 cells assessed as dead cells at 1 uM measured after 24 hrs by annexin V-FITC/PI staining based flow cytometry analysis (Rvb= 5.0%); format: functional
SK-BR-3 [5] = experiment: Induction of apoptosis in human SK-BR-3 cells assessed as increase in cell death at 5 uM in presence of Z-VAD-FMK measured after 24 hrs by trypan blue exclusion assay; format: functional, cell-based
SK-BR-3 [6] = experiment: Antiproliferative activity against human SK-BR-3 cells assessed as reduction in cell growth at 20 uM incubated for 5 days by trypan blue exclusion assay relative to control; format: functional; parameters: scale not given: the % may be the effect or the level left; details: time 5 day
SK-BR-3 [7] = experiment: Induction of apoptosis in human SK-BR-3 cells assessed as early apoptotic cells at 10 uM measured after 24 hrs by annexin V-FITC/PI staining based flow cytometry analysis (Rvb= 2.2%); format: functional
SK-BR-3 [8] = experiment: Induction of apoptosis in human SK-BR-3 cells assessed as early apoptotic cells at 40 uM measured after 24 hrs by annexin V-FITC/PI staining based flow cytometry analysis (Rvb= 2.2%); format: functional
SK-BR-3 [9] = experiment: Induction of apoptosis in human SK-BR-3 cells assessed as dead cells at 5 uM measured after 24 hrs by annexin V-FITC/PI staining based flow cytometry analysis (Rvb= 5.0%); format: functional
SK-BR-3 [10] = experiment: Induction of apoptosis in human SK-BR-3 cells assessed as live cells at 5 uM measured after 24 hrs by annexin V-FITC/PI staining based flow cytometry analysis (Rvb= 90.6%); format: functional
SK-BR-3 [11] = experiment: Induction of apoptosis in human SK-BR-3 cells assessed as early apoptotic cells at 20 uM measured after 24 hrs by annexin V-FITC/PI staining based flow cytometry analysis (Rvb= 2.2%); format: functional
SK-BR-3 [12] = experiment: Induction of apoptosis in human SK-BR-3 cells assessed as dead cells at 20 uM measured after 24 hrs by annexin V-FITC/PI staining based flow cytometry analysis (Rvb= 5.0%); format: functional
SK-BR-3 [13] = experiment: Induction of apoptosis in human SK-BR-3 cells assessed as late apoptotic cells at 40 uM incubated for 24 hrs by flow cytometry with Annexin V-FITC/propidium iodide staining based flow cytometry assay (Rvb= 2.2%); format: functional
SK-BR-3 [14] = experiment: Induction of apoptosis in human SK-BR-3 cells assessed as dead cells at 40 uM measured after 24 hrs by annexin V-FITC/PI staining based flow cytometry analysis (Rvb= 5.0%); format: functional
SK-BR-3 [15] = experiment: Induction of apoptosis […] in human SK-BR-3 cells assessed as late apoptotic cells at 5 uM incubated for 24 hrs by flow cytometry with Annexin V-FITC/propidium iodide staining based flow cytometry analysis (Rvb= 2.2%); format: functional
SK-BR-3 [16] = experiment: Induction of apoptosis in human SK-BR-3 cells assessed as live cells at 40 uM measured after 24 hrs by annexin V-FITC/PI staining based flow cytometry analysis (Rvb= 90.6%); format: functional
SK-BR-3 [17] = experiment: Induction of apoptosis in human SK-BR-3 cells assessed as dead cells at 10 uM measured after 24 hrs by annexin V-FITC/PI staining based flow cytometry analysis (Rvb= 5.0%); format: functional
SK-BR-3 [18] = experiment: Induction of apoptosis in human SK-BR-3 cells assessed as late apoptotic cells at 20 uM incubated for 24 hrs by flow cytometry with Annexin V-FITC/propidium iodide staining based flow cytometry assay (Rvb= 2.2%); format: functional
SK-BR-3 [19] = experiment: Induction of apoptosis in human SK-BR-3 cells assessed as live cells at 10 uM measured after 24 hrs by annexin V-FITC/PI staining based flow cytometry analysis (Rvb= 90.6%); format: functional
SK-BR-3 [20] = experiment: Induction of apoptosis in human SK-BR-3 cells assessed as late apoptotic cells at 10 uM incubated for 24 hrs by flow cytometry with Annexin V-FITC/propidium iodide staining based flow cytometry assay (Rvb= 2.2%); format: functional
SK-BR-3 [21] = experiment: Induction of apoptosis in human SK-BR-3 cells assessed as live cells at 20 uM measured after 24 hrs by annexin V-FITC/PI staining based flow cytometry analysis (Rvb= 90.6%); format: functional
SK-BR-3 [22] = experiment: Induction of apoptosis in human SK-BR-3 cells assessed as early apoptotic cells at 5 uM measured after 24 hrs by annexin V-FITC/PI staining based flow cytometry analysis (Rvb= 2.2%); format: functional
[23] = molecular target: Epidermal growth factor receptor (Homo sapiens) (UniProt P00533); experiment: Induction of endolysosomal trafficking of EGFR in human SK-BR-3 cells assessed as EGF-induced degradation of EGFR at 2 uM measured after 15 hrs post-EGF stimulation by western blot analysis relative to control; format: cell-based
Chain of Epidermal growth factor receptor (Homo sapiens) (P00533 whole entry): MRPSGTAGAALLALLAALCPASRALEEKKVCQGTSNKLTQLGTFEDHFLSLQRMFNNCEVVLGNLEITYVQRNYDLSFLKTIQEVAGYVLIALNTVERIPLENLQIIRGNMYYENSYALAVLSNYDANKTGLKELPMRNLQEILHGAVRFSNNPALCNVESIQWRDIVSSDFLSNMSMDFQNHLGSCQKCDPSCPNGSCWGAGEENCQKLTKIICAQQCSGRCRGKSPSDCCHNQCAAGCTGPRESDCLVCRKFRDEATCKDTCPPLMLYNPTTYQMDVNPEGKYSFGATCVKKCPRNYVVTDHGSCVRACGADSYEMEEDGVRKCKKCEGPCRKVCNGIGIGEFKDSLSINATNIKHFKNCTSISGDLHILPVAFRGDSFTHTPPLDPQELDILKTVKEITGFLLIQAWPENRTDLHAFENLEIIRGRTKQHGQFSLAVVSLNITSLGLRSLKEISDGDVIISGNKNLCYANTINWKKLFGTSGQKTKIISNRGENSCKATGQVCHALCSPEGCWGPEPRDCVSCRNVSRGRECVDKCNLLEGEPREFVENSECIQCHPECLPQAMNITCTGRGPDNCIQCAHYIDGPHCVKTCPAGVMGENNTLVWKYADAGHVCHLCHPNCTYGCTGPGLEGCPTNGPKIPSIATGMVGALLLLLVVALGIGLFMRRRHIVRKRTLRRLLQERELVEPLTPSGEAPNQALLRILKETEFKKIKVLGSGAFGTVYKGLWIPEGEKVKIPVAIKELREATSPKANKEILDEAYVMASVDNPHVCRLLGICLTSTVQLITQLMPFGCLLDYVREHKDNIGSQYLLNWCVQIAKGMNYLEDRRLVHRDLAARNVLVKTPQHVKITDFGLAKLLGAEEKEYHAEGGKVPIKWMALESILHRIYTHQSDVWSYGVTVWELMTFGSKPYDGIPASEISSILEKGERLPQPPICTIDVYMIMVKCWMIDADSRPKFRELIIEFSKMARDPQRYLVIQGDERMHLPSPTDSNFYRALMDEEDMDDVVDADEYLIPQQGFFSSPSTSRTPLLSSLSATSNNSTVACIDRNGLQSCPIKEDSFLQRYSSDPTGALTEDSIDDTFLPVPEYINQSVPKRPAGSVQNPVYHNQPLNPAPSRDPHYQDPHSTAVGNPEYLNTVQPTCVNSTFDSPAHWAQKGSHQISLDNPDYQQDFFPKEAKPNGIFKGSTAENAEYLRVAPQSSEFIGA

HEK-293T [24] = experiment: Cytotoxicity against HEK293T cells assessed as reduction in cell viability at 10 to 20 uM measured after 24 hrs by trypan blue exclusion assay; format: cell-based; details: human, dose 10-20 µM
SK-BR-3 [25] = experiment: Induction of apoptosis in human SK-BR-3 cells assessed as increase in cell death at 10 uM in presence of Z-VAD-FMK measured after 24 hrs by trypan blue exclusion assay; format: functional, cell-based
HEK-293T [26] = experiment: Induction of autophagy in human HEK293T cells assessed as increase in p62 protein level at 10 to 20 uM in presence of chloroquine measured after 3 hrs by western blot analysis; format: functional, cell-based; details: dose 10-20 µM
HEK-293T [27] = experiment: Induction of autophagy in human HEK293T cells assessed as increase in LC3-II protein level at 10 to 20 uM in presence of chloroquine measured after 3 hrs by western blot analysis; format: functional, cell-based; details: dose 10-20 µM
HEK-293T [28] = experiment: Induction of autophagy in human HEK293T cells assessed as increase in p62 protein level at 10 to 20 uM measured after 3 hrs by western blot analysis; format: functional, cell-based; details: dose 10-20 µM
[29] = molecular target: Receptor tyrosine-protein kinase erbB-2 (Homo sapiens) (UniProt P04626); experiment: Induction of endolysosomal trafficking of HER2 in human SK-BR-3 cells assessed as EGF-induced degradation of HER2 at 2 uM measured after 24 hrs post-EGF stimulation by western blot analysis relative to control; format: cell-based
Chain of Receptor tyrosine-protein kinase erbB-2 (Homo sapiens) (P04626 whole entry): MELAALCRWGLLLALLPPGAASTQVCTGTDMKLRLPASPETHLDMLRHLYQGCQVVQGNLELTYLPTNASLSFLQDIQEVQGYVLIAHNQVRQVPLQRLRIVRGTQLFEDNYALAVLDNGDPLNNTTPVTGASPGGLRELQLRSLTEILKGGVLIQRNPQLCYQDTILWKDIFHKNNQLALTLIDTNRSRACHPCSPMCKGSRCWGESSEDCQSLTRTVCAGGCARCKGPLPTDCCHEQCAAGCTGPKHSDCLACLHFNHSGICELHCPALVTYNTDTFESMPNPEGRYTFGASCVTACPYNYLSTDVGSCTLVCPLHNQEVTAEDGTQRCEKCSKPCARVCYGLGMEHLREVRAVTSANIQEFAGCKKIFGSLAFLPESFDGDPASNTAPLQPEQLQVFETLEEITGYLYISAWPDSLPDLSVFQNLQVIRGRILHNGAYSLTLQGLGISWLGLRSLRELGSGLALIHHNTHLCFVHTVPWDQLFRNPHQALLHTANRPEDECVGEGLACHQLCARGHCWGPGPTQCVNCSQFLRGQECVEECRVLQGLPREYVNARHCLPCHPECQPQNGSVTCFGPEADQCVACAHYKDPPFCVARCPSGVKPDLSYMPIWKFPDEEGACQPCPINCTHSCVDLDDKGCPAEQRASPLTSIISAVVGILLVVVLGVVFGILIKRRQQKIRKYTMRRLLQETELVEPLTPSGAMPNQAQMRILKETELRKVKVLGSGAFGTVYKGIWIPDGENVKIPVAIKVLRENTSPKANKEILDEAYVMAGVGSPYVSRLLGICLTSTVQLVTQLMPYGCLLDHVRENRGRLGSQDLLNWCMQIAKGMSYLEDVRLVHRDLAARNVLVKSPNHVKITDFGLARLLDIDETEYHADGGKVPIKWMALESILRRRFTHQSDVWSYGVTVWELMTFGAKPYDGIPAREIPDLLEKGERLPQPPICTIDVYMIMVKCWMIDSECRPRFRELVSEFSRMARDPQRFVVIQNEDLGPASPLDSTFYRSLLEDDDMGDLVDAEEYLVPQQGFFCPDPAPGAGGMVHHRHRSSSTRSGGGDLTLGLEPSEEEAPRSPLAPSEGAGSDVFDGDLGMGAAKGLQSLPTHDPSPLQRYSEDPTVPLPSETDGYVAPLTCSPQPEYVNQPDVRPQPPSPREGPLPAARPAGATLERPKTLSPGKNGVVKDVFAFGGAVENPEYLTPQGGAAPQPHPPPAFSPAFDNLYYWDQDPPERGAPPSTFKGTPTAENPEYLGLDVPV

SK-BR-3 [30] = experiment: Antiproliferative activity against human SK-BR-3 cells assessed as reduction in cell growth incubated for 5 days by trypan blue exclusion assay; format: functional, cell-based; details: time 5.0 day
Beclin-1 [31] = molecular target: T1, Beclin-1 (Homo sapiens, UniProt Q14457); experiment: Inhibition of FLAG-tagged Beclin 1 self-association in HEK293T cells cotransfected with GFP assessed as reduction in beclin 1- GFP pull down by FLAG-beclin 1 by coimmunoprecipitation assay; format: cell-based
T1 sequence (Q14457 whole entry): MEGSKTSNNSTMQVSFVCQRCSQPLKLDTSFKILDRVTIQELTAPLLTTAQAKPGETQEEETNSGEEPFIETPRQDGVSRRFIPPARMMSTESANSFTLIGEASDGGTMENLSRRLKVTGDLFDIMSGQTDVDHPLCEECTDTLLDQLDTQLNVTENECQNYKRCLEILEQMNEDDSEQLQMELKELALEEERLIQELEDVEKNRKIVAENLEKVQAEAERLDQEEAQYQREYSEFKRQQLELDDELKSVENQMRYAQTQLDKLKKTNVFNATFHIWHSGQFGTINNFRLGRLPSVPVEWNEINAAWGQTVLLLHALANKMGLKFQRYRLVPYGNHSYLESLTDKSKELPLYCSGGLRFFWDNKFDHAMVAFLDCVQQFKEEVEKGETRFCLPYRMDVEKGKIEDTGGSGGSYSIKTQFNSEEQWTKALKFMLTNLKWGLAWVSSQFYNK

HEK293T [32] = experiment: Induction of FLAG tagged Beclin 1- Atg14L interaction in HEK293T cells assessed as increase in endogenous beclin 1 pull down at 30 uM by coimmunoprecipitation assay; format: cell-based; details: Homo sapiens
[33] = molecular target: Receptor tyrosine-protein kinase erbB-2 (Homo sapiens) (UniProt P04626); experiment: Induction of endolysosomal trafficking of HER2 in human SK-BR-3 cells assessed as EGF-induced degradation of HER2 at 2 uM measured after 15 hrs post-EGF stimulation by western blot analysis relative to control; format: cell-based
HEK-293T [34] = experiment: Induction of autophagy in HEK293T cells assessed as increase in LC3-II protein level at 10 to 20 uM incubated for 3 hrs by western blot analysis; format: functional, cell-based; details: Homo sapiens, dose 10-20 µM
SK-BR-3 [35] = experiment: Antiproliferative activity against human SK-BR-3 cells assessed as reduction of cell growth measured after 24 hrs by trypan blue exclusion assay; details: SK-BR-3, 24 h
Beclin-1 [36] = molecular target: T1, Beclin-1; experiment: Binding affinity to Beclin 1 coiled coil domain (unknown origin) by isothermal titration calorimetry assay
SK-BR-3 [37] = experiment: Induction of apoptosis in human SK-BR-3 cells assessed as increase in cleaved caspase-3 level at 10 uM incubated for 24 hrs by western blot analysis; format: functional, cell-based
SK-BR-3 [38] = experiment: Induction of apoptosis in human SK-BR-3 cells assessed as increase in cleaved PARP level at 10 uM incubated for 24 hrs by western blot analysis; format: functional, cell-based
HEK293T [39] = experiment: Induction of FLAG tagged Beclin 1- Atg14L interaction in HEK293T cells assessed as increase in endogenous beclin 1 pull down at 10 to 20 uM by coimmunoprecipitation assay; format: cell-based; details: Homo sapiens, dose 10-20 µM
HEK293T [40] = experiment: Induction of Beclin 1- FLAG tagged UVRAG interaction in HEK293T cells assessed as endogenous beclin 1 pull down at 10 uM by coimmunoprecipitation assay; format: cell-based; details: Homo sapiens

SMILES: COc1cccc2c1C(=O)c1c(O)c3c(c(O)c1C2=O)C[C@@](O)(C(=O)CO)C[C@@H]3O[C@H]1C[C@H](N)[C@H](O)[C@H](C)O1 [DOXORUBICIN]
- Activity (SK-BR-3 [1]): 18.7%
- Activity (SK-BR-3 [2]): 16.5%
- Activity (SK-BR-3 [3]): 48.1%
- Activity (SK-BR-3 [4]): 16.7%
- Activity (SK-BR-3 [5]): inactive

SMILES: CC[C@H](C)[C@H](NC(=O)[C@H](CC(C)C)NC(=O)[C@H](CCCNC(=N)N)NC(=O)[C@H](CCCNC(=N)N)NC(=O)[C@H](CCCNC(=N)N)NC(=O)[C@H](CCCNC(=N)N)NC(=O)[C@H](CCC(N)=O)NC(=O)[C@H](CCCNC(=N)N)NC(=O)[C@H](CCCNC(=N)N)NC(=O)[C@H](CCCCN)NC(=O)[C@H](CCCCN)NC(=O)[C@H](CCCNC(=N)N)NC(=O)CNC(=O)[C@H](Cc1ccc(O)cc1)NC(C)=O)C(=O)N[C@@H](CO)C(=O)N[C@@H](CCC(=O)O)C(=O)N[C@@H](CC(C)C)C(=O)N[C@@H]1CCCCCC/C=C/CCC[C@@H](C(=O)N[C@@H](C)C(N)=O)NC(=O)[C@H](CCCNC(=N)N)NC(=O)[C@H](CCC(N)=O)NC(=O)[C@H](CCCCN)NC(=O)[C@H](CCC(=O)O)NC(=O)[C@H](CCCNC(=N)N)NC(=O)[C@H](CC(=O)O)NC1=O
- Activity (SK-BR-3 [6]): 30%
- Activity (SK-BR-3 [7]): 0.2%
- Activity (SK-BR-3 [8]): 0.8%
- Activity (SK-BR-3 [9]): 0.4%
- Activity (SK-BR-3 [10]): 91%
- Activity (SK-BR-3 [11]): 1.1%
- Activity (SK-BR-3 [12]): 3.5%
- Activity (SK-BR-3 [13]): 21.6%
- Activity (SK-BR-3 [14]): 1.5%
- Activity (SK-BR-3 [15]): 8.2%
- Activity (SK-BR-3 [16]): 76.1%
- Activity (SK-BR-3 [17]): 0.8%
- Activity (SK-BR-3 [18]): 6.1%
- Activity (SK-BR-3 [19]): 90.6%
- Activity (SK-BR-3 [20]): 8.1%
- Activity (SK-BR-3 [21]): 89%
- Activity (SK-BR-3 [22]): 0.2%

SMILES: CC[C@H](C)[C@@H]1NC(=O)[C@H](C(C)C)NC(=O)[C@H](CC(=O)O)NC(=O)[C@H](C(C)C)NC(=O)[C@H](CC(C)C)NC(=O)[C@H](NC(=O)[C@H](CC(N)=O)NC(=O)[C@H](Cc2ccccc2)NC(=O)[C@H](CC(C)C)NC(=O)[C@@H](NC(=O)[C@H](CCCNC(=N)N)NC(=O)[C@H](CCCNC(=N)N)NC(=O)[C@H](CCCNC(=N)N)NC(=O)[C@H](CCC(N)=O)NC(=O)[C@H](CCCNC(=N)N)NC(=O)[C@H](CCCNC(=N)N)NC(=O)[C@H](CCCCN)NC(=O)[C@H](CCCCN)NC(=O)[C@H](CCCNC(=N)N)NC(=O)CNC(=O)[C@H](Cc2ccc(O)cc2)NC(C)=O)C(C)C)CCCCCC/C=C/CCC[C@@H](C(=O)N[C@@H](CCCNC(=N)N)C(=O)N[C@@H](CCCCN)C(=O)N[C@H](C(N)=O)C(C)C)NC(=O)[C@H](CCCCN)NC1=O
- Activity [23]: 60%
- Activity (HEK-293T [24]): Non-Toxic
- Activity (SK-BR-3 [25]): Active
- Activity (SK-BR-3 [7]): 0.3%
- Activity (HEK-293T [26]): inactive
- Activity (SK-BR-3 [9]): 0.6%
- Activity (HEK-293T [27]): Active
- Activity (HEK-293T [28]): inactive
- Activity (SK-BR-3 [10]): 81.1%
- Activity [29]: 70%
- Activity (SK-BR-3 [15]): 13.3%
- Activity (SK-BR-3 [30]): Dose-dependent effect
- inhibition (Beclin-1 [31]): Dose-dependent effect
- Activity (HEK293T [32]): Active
- Activity [33]: 50%
- Activity (SK-BR-3 [17]): 1.2%
- Activity (HEK-293T [34]): Active
- pIC50 (SK-BR-3 [35]): 5.15
- Activity (SK-BR-3 [19]): 69%
- pKd (Beclin-1 [36]): 6.48
- Activity (SK-BR-3 [37]): inactive
- Activity (SK-BR-3 [38]): inactive
- Activity (HEK293T [39]): inactive
- Activity (SK-BR-3 [20]): 29.5%
- Activity (HEK293T [40]): Active
- Activity (SK-BR-3 [22]): 2%
